The numbers were not newly measured in paper doi:10.1101/2024.12.09.627564, “Cannabinoid inhibition of mechanosensitive K^+ channels” (bioRxiv, 2024), which cites them from elsewhere.

Structures are written as SMILES.

The test system of series [1] is TRPA1. Details: method as in PMID 30697147, PMID 31566564. To be noted: activation; cited from earlier work.
Series [2] has as its system GPR55. Details: method as in PMID 17876302, PMID 29669714, PMID 36787750. The conditions noted are these: negative modulation of GPR55; cited from earlier work.
The subject of series [3] is Kv7.2/7.3. Also on record: method as in PMID 35179483, PMID 37857637. To be noted: activation; cited from earlier work.
In series [4] the test system is voltage-gated sodium channels. The conditions noted are these: cited from earlier work.
Details of series [5]: method as in PMID 32804502. To be noted: slice recordings; cited from earlier work.

As for `C=C(C)[C@@H]1CCC(C)=C[C@H]1c1c(O)cc(CCCCC)cc1O` [CBD, Cannabidiol], the figures for the EC50 in series [1] and in series [3] were 110 nM and 200 nM, respectively. Further, the IC50 in series [2] was around 500 nM; in series [4], 2000 to 10000 nM. The “concentration at which antiepileptic effects are observed” value in series [5] is reported as at most 100 nM.
